Test results taken from PubChem BioAssay AID248 (DTP/NCI, 2004).
Values joined by “and” are separate entries in the source; they are usually repeats but may differ in a detail not shown here. Equal entries are not always repeated. Inconclusive results and toxic doses are left out. No stated cut-off is given here; in the data, active means T/C of 150% or more; inactive means T/C below 125%.

System: L1210 leukemia ip in BDF1 mice, survival T/C
Test: NCI In Vivo Anticancer Drug Screen. Data for tumor model L1210 Leukemia (intraperitoneal) in B6D2F1 (BDF1) mice
Conditions: endpoint: mean survival time, higher = longer survival
How it was run: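 Transplanted-tumor mice were given test agent; controls received vehicle only. Survival readings from the two groups were divided (treated over control).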

[1] = dose: 100.0 mg/kg/injection, schedule: Q01DX001 (ip), vehicle: Klucel (hydroxypropylcellulose) (HPC)
[2] = dose: 200.0 mg/kg/injection, schedule: Q01DX001 (ip), vehicle: Klucel (hydroxypropylcellulose) (HPC)
[3] = dose: 100.0 mg/kg/injection, schedule: Q01DX001 (ip), vehicle: saline with Tween-80
[4] = dose: 200.0 mg/kg/injection, schedule: Q01DX001 (ip), vehicle: saline with Tween-80
[5] = dose: 400.0 mg/kg/injection, schedule: Q01DX001 (ip), vehicle: saline with Tween-80
[6] = dose: 100.0 mg/kg/injection, schedule: Q01DX001 (ip), vehicle: saline
[7] = dose: 100.0 mg/kg/injection, schedule: Q04DX002 (ip), vehicle: Klucel (hydroxypropylcellulose) (HPC)
[8] = dose: 200.0 mg/kg/injection, schedule: Q04DX002 (ip), vehicle: Klucel (hydroxypropylcellulose) (HPC)
[9] = dose: 400.0 mg/kg/injection, schedule: Q04DX002 (ip), vehicle: Klucel (hydroxypropylcellulose) (HPC)
[10] = dose: 50.0 mg/kg/injection, schedule: Q01DX001 (ip), vehicle: saline
[11] = dose: 100.0 mg/kg/injection, schedule: Q04DX003 (ip), vehicle: saline
[12] = dose: 200.0 mg/kg/injection, schedule: Q01DX001 (ip), vehicle: saline
[13] = dose: 200.0 mg/kg/injection, schedule: Q04DX003 (ip), vehicle: saline
[14] = dose: 400.0 mg/kg/injection, schedule: Q01DX001 (ip), vehicle: saline
[15] = dose: 400.0 mg/kg/injection, schedule: Q04DX003 (ip), vehicle: saline
[16] = dose: 100.0 mg/kg/injection, schedule: Q01DX009 (ip), vehicle: saline with Tween-80
[17] = dose: 100.0 mg/kg/injection, schedule: Q04DX003 (ip), vehicle: saline with Tween-80
[18] = dose: 200.0 mg/kg/injection, schedule: Q01DX009 (ip), vehicle: saline with Tween-80
[19] = dose: 200.0 mg/kg/injection, schedule: Q04DX003 (ip), vehicle: saline with Tween-80
[20] = dose: 400.0 mg/kg/injection, schedule: Q01DX009 (ip), vehicle: saline with Tween-80
[21] = dose: 400.0 mg/kg/injection, schedule: Q04DX003 (ip), vehicle: saline with Tween-80
[22] = dose: 50.0 mg/kg/injection, schedule: Q01DX009 (ip), vehicle: saline with Tween-80

Measured: T/C

CCOC(=O)C(NC(=O)c1cc2sccc2[nH]1)C(=O)OCC
inactive: [1] 96 % of control | [2] 96 % of control | dose: 400.0 mg/kg/injection, schedule: Q01DX001 (ip), vehicle: Klucel (hydroxypropylcellulose) (HPC) 98 % of control

O=C(Nc1nccs1)c1cc2ccccc2cc1O
inactive: dose: 100.0 mg/kg/injection, schedule: Q04DX002 (ip), vehicle: saline with Tween-80 97 % of control | dose: 200.0 mg/kg/injection, schedule: Q04DX002 (ip), vehicle: saline with Tween-80 87 % of control | dose: 400.0 mg/kg/injection, schedule: Q04DX002 (ip), vehicle: saline with Tween-80 87 % of control

O=C1CCCCC1CCCBr (stereo not drawn)
inactive: [3] 102 % of control | [4] 98 % of control | [5] 95 % of control

CC(=O)SCC(CSC(C)=O)c1nncc2ccccc12
inactive: [6] 95 % of control

COC(=O)C1=C(C(=O)OC)C2C=CC1C1(C)NC(=O)C21C (stereo not drawn)
inactive: [7] 94 % of control | [8] 91 % of control | [9] 97 % of control

CCOC(C)=N
inactive: [10] 100 % of control | dose: 50.0 mg/kg/injection, schedule: Q01DX008 (ip), vehicle: saline 102 % of control | [6] 89 % of control and 97 % of control | dose: 100.0 mg/kg/injection, schedule: Q01DX008 (ip), vehicle: saline 112 % of control | [11] 107 % of control | [12] 105 % of control and 111 % of control | dose: 200.0 mg/kg/injection, schedule: Q01DX008 (ip), vehicle: saline 115 % of control | [13] 107 % of control | [14] 115 % of control | [15] 110 % of control

Cc1ncn(C)n1
inactive: dose: 100.0 mg/kg/injection, schedule: Q04DX002 (ip), vehicle: saline 94 % of control | dose: 200.0 mg/kg/injection, schedule: Q04DX002 (ip), vehicle: saline 112 % of control | dose: 400.0 mg/kg/injection, schedule: Q04DX002 (ip), vehicle: saline 98 % of control

BrC1C2CC(c3ccccc32)C1Br (stereo not drawn)
inactive: [16] 101 % of control | [17] 94 % of control | [18] 91 % of control | [19] 93 % of control | [20] 98 % of control | [21] 95 % of control

Cc1cc2ncn(CC(=O)O)c2cc1C
inactive: [11] 101 % of control | [13] 95 % of control | [15] 97 % of control

O=C(O)/C=C/C(=O)OCCBr
inactive: dose: 25.0 mg/kg/injection, schedule: Q04DX003 (ip), vehicle: saline 92 % of control | [22] 100 % of control | dose: 50.0 mg/kg/injection, schedule: Q04DX003 (ip), vehicle: saline 95 % of control | [16] 115 % of control | [11] 90 % of control | [18] 97 % of control

CC(C(=O)c1ccc(F)cc1)C(O)(C(F)(F)F)C(F)(F)F (stereo not drawn)
inactive: dose: 100.0 mg/kg/injection, schedule: Q04DX003 (ip), vehicle: Klucel (hydroxypropylcellulose) (HPC) 94 % of control | dose: 200.0 mg/kg/injection, schedule: Q04DX003 (ip), vehicle: Klucel (hydroxypropylcellulose) (HPC) 95 % of control | dose: 400.0 mg/kg/injection, schedule: Q04DX003 (ip), vehicle: Klucel (hydroxypropylcellulose) (HPC) 103 % of control

O=C(Nc1ccccc1)P(=O)(O)c1ccccc1
inactive: dose: 62.5 mg/kg/injection, schedule: Q01DX001 (ip), vehicle: Klucel (hydroxypropylcellulose) (HPC) 102 % of control | dose: 125.0 mg/kg/injection, schedule: Q01DX001 (ip), vehicle: Klucel (hydroxypropylcellulose) (HPC) 102 % of control | dose: 250.0 mg/kg/injection, schedule: Q01DX001 (ip), vehicle: Klucel (hydroxypropylcellulose) (HPC) 92 % of control

COc1ccc(C(=O)c2ccccc2NC(C)=O)cc1
inactive: [17] 89 % of control | [19] 98 % of control | [21] 94 % of control

CC(=O)OC1OC(C2COC(C)(C)O2)C2OC(C)(C)OC12 (stereo not drawn)
inactive: dose: 100.0 mg/kg/injection, schedule: Q01DX001 (ip), vehicle: carboxymethylcellulose (CMC) 103 % of control | dose: 200.0 mg/kg/injection, schedule: Q01DX001 (ip), vehicle: carboxymethylcellulose (CMC) 103 % of control | dose: 400.0 mg/kg/injection, schedule: Q01DX001 (ip), vehicle: carboxymethylcellulose (CMC) 103 % of control

O=C1C=CC(=O)c2c(O)c(CO)c(CO)c(O)c21
inactive: dose: 0.78 mg/kg/injection, schedule: Q01DX009 (ip), vehicle: water 89 % of control | dose: 1.56 mg/kg/injection, schedule: Q01DX009 (ip), vehicle: water 86 % of control

CC(=O)C1CCC2C3CCC4CC(O)CCC4(C)C3CCC12C#N (stereo not drawn)
inactive: dose: 100.0 mg/kg/injection, schedule: Q01DX009 (sc), vehicle: steriod suspending solution 101 % of control | dose: 100.0 mg/kg/injection, schedule: Q04DX003 (sc), vehicle: steriod suspending solution 93 % of control | dose: 200.0 mg/kg/injection, schedule: Q01DX009 (sc), vehicle: steriod suspending solution 108 % of control | dose: 200.0 mg/kg/injection, schedule: Q04DX003 (sc), vehicle: steriod suspending solution 102 % of control | dose: 400.0 mg/kg/injection, schedule: Q01DX009 (sc), vehicle: steriod suspending solution 108 % of control | dose: 400.0 mg/kg/injection, schedule: Q04DX003 (sc), vehicle: steriod suspending solution 104 % of control

CSc1nc(Cl)c(Br)c(N2CC2)n1
inactive: dose: 100.0 mg/kg/injection, schedule: Q01DX Z (ip), vehicle: methylcellulose (MC) 110 % of control | dose: 200.0 mg/kg/injection, schedule: Q01DX Z (ip), vehicle: methylcellulose (MC) 108 % of control

CN=C(NC1CCCCC1)c1ccc(NC(=O)c2ccc(C(=O)Nc3ccc(C(=NC)NC4CCCCC4)cc3)cc2)cc1
inactive: dose: 1.88 mg/kg/injection, schedule: Q01DX Z (ip), vehicle: saline 102 % of control | dose: 3.75 mg/kg/injection, schedule: Q01DX Z (ip), vehicle: saline 100 % of control | dose: 7.5 mg/kg/injection, schedule: Q01DX Z (ip), vehicle: saline 102 % of control

Fc1c(F)c(F)c(Oc2c(F)c(F)c(Br)c(F)c2F)c(F)c1F
inactive: [3] 88 % of control | [4] 88 % of control | [5] 88 % of control

O=C1NC(=O)C2C3C=CC(C3)C12 (stereo not drawn)
inactive: dose: 50.0 mg/kg/injection, schedule: Q01DX001 (ip), vehicle: Klucel (hydroxypropylcellulose) (HPC) 101 % of control | [1] 99 % of control | [2] 101 % of control

Cc1c(NC(=O)Nc2ccccc2C(F)(F)F)c(=O)n(-c2ccccc2)n1C
inactive: [16] 104 % of control | [18] 98 % of control | [20] 91 % of control

COc1ccc(N(N=O)C(C)=O)cc1
inactive: dose: 5.0 mg/kg/injection, schedule: Q01DX001 (ip), vehicle: saline 95 % of control | dose: 10.0 mg/kg/injection, schedule: Q01DX001 (ip), vehicle: saline 97 % of control | dose: 20.0 mg/kg/injection, schedule: Q01DX001 (ip), vehicle: saline 106 % of control | dose: 40.0 mg/kg/injection, schedule: Q01DX001 (ip), vehicle: saline 106 % of control

CN(C)C=Nc1ccc(C(=O)OCCN(C)C)cc1
inactive: [22] 115 % of control | [16] 97 % of control | [18] 106 % of control

O=NN(Cc1ccccc1)Cc1ccccc1
inactive: [10] 104 % of control | [6] 102 % of control | [12] 98 % of control | [14] 104 % of control

Nc1nccnc1C(=O)O
inactive: dose: 25.0 mg/kg/injection, schedule: Q01DX009 (ip), vehicle: water 100 % of control | dose: 50.0 mg/kg/injection, schedule: Q01DX009 (ip), vehicle: water 96 % of control | dose: 100.0 mg/kg/injection, schedule: Q01DX009 (ip), vehicle: water 100 % of control | dose: 200.0 mg/kg/injection, schedule: Q01DX009 (ip), vehicle: water 96 % of control

O=C(OCc1ccccc1CN1CCCCC1)c1cccc(Cl)c1
inactive: [7] 109 % of control | [8] 98 % of control | [9] 91 % of control
